Source: patent US20200360386A1, “Inhibitors of HSP90, PI3-Kinase, Proteasome, HDAC, and P97 Pathways for Selective Removal of Senescent Cells in the Treatment of Age Related Conditions” (Unity Biotechnology, Inc., priority 2017, published 2020)

Assays:
Format in all cases: in vivo, mouse
[1] = tested on: 3MR or INK-ATTAC mice exposed to cigarette smoke; experiment: Cigarette smoke induced COPD model, oxygen saturation by pulse oximeter; settings: after two months of cigarette smoke exposure, compared with untreated controls; FIG. 6
Procedure: As a model for chronic obstructive pulmonary disease (COPD), mice were exposed to cigarette smoke. The effect of a senolytic agent on the mice exposed to smoke is assessed by senescent cell clearance, lung function, and histopathology.
The mice used in this study include the 3MR strain, described in US 2017/0027139 A1 and in Demaria et al., Dev Cell. 2014 Dec. 22; 31 (6): 722-733. The 3MR mouse has a transgene encoding thymidine kinase that converts the prodrug gancyclovir (GCV) to a compound that is lethal to cells. The enzyme in the transgene is placed under control of the p16 promoter, which causes it to be specifically expressed in senescent cells. Treatment of the mice with GCV eliminates senescent cells.
Other mice used in this study include the INK-ATTAC strain, described in US 2015/0296755 A1 and in Baker et al., Nature 2011 Nov. 2; 479 (7372):232-236. The INK-ATTAC mouse has a transgene encoding switchable caspase 8 under control of the p16 promoter. The caspase 8 can be activated by treating the mice with the switch compound AP20187, whereupon the caspase 8 directly induces apoptosis in senescent cells, eliminating them from the mouse.
To conduct the experiment, six-week-old 3MR (n=35) or INK-ATTAC (n=35) mice were chronically exposed to cigarette smoke generated from a Teague TE-10 system, an automatically-controlled cigarette smoking machine that produces a combination of side-stream and mainstream cigarette smoke in a chamber, which is transported to a collecting and mixing chamber where varying amounts of air is mixed with the smoke mixture. The COPD protocol was adapted from the COPD core facility at Johns Hopkins University (Rangasamy et al., 2004, J. Clin. Invest. 114:1248-1259; Yao et al., 2012, J. Clin. Invest. 122:2032-2045).
Mice received a total of 6 hours of cigarette smoke exposure per day, 5 days a week for 6 months. Each lighted cigarette (3R4F research cigarettes containing 10.9 mg of total particulate matter (TPM), 9.4 mg of tar, and 0.726 mg of nicotine, and 11.9 mg carbon monoxide per cigarette [University of Kentucky, Lexington, Ky.]) was puffed for 2 seconds and once every minute for a total of 8 puffs, with the flow rate of 1.05 L/min, to provide a standard puff of 35 cm^3. […] The smoke chamber atmosphere was monitored for total suspended particulates (80-120 mg/m3) and carbon monoxide (350 ppm). […]
After two months of cigarette smoke (CS) exposure, lung function was assessed by monitoring oxygen saturation using the MouseSTAT PhysioSuite™ pulse oximeter (Kent Scientific). […] Mice were monitored for 30 seconds and the average peripheral capillary oxygen saturation (SpO2) measurement over this duration was calculated.

[2] = tested on: C57BL/6J mice, osteoarthritis induced by ACL surgery; experiment: Osteoarthritis model: anterior cruciate ligament surgery, intra-articular treatment
Procedure: The model was implemented as follows. C57BL/6J mice underwent surgery to cut the anterior cruciate ligament of one rear limb to induce osteoarthritis in the joint of that limb. During week 3 and week 4 post-surgery, the mice were treated with 5.8 μg of Nutlin-3A (n=7) per operated knee by intra-articular injection, q.o.d. for 2 weeks. At the end of 4 weeks post-surgery, joints of the mice were monitored for presence of senescent cells, assessed for function, monitored for markers of inflammation, and underwent histological assessment.
Two control groups of mice were included in the studies performed: one group comprising C57BL/6J or 3MR mice that had undergone a sham surgery (n=3) (i.e., surgical procedures followed except for cutting the ACL) and intra-articular injections of vehicle parallel to the GCV (gancyclovir) treated group; and one group comprising C57BL/6J or 3MR mice that had undergone an ACL surgery and received intra-articular injections of vehicle (n=5) parallel to the GCV-treated group. RNA from the operated joints of mice from the Nutlin-3A treated mice was analyzed for expression of SASP factors (mmp3, IL-6) and senescence markers (p16). qRT-PCR was performed to detect mRNA levels.
Function of the limbs was assessed 4 weeks post-surgery by a weight bearing test to determine which leg the mice favored. The mice were allowed to acclimate to the chamber on at least three occasions prior to taking measurements. Mice were maneuvered inside the chamber to stand with one hind paw on each scale. The weight that was placed on each hind limb was measured over a three second period. At least three separate measurements were made for each animal at each time point. The results were expressed as the percentage of the weight placed on the operated limb versus the contralateral unoperated limb.

[3] = tested on: LDLR-/- mice fed a high fat diet; experiment: Atherosclerosis model: LDLR-/- mice on high fat diet, systemic treatment
Procedure: This example illustrates the testing of an MDM2 inhibitor in a mouse model for treatment of atherosclerosis. The test compounds are administered systemically rather than locally. The model is done in an LDLR−/− strain of mice, which are deficient in the receptor for low-density lipoprotein. The experiments described here can be adapted mutatis mutandis to test and develop other types of inhibitors for use in clinical therapy.
Two groups of LDLR−/− mice (10 weeks) are fed a high fat diet (HFD) (Harlan Teklad TD.88137) having 42% calories from fat, beginning at Week 0 and throughout the study. Two groups of LDLR−/− mice (10 weeks) are fed normal chow (−HFD). From weeks 0-2, one group of HFD mice and −HFD mice are treated with Nutlin-3A (25 mg/kg, intraperitoneally). One treatment cycle is 14 days treatment, 14 days off. Vehicle is administered to one group of HFD mice and one group of −HFD mice. At week 4 (timepoint 1), one group of mice are sacrificed and to assess presence of senescent cells in the plaques. For the some of the remaining mice, Nutlin-3A and vehicle administration is repeated from weeks 4-6. At week 8 (timepoint 2), the mice are sacrificed and to assess presence of senescent cells in the plaques. The remaining mice are treated with Nutlin-3A or vehicle from weeks 8-10. At week 12 (timepoint 3), the mice are sacrificed and to assess the level of plaque and the number of senescent cells in the plaques.
Plasma lipid levels were measured in LDLR−/− mice fed a HFD and treated with Nutlin-3A or vehicle at timepoint 1 as compared with mice fed a −HFD (n=3 per group). Plasma was collected mid-afternoon and analyzed for circulating lipids and lipoproteins.
At the end of timepoint 1, LDLR−/− mice fed a HFD and treated with Nutlin-3A or vehicle were sacrificed (n=3, all groups), and the aortic arches were dissected for RT-PCR analysis of SASP factors and senescent cell markers. Values were normalized to GAPDH and expressed as fold-change versus age-matched, vehicle-treated LDLR−/− mice on a normal diet.
At the end of timepoint 2, LDLR−/− mice fed a HFD and treated with Nutlin-3A or vehicle (n=3 for all groups) were sacrificed, and aortic arches were dissected for RT-PCR analysis of SASP factors and senescent cell markers. Values were normalized to GAPDH and expressed as fold-change versus age-matched, vehicle-treated LDLR−/− mice on a normal diet.
At the end of timepoint 3, LDLR−/− mice fed a HFD and treated with Nutlin-3A or vehicle (n=3 for all groups) were sacrificed, and aortas were dissected and stained with Sudan IV to detect the presence of lipid. Body composition of the mice was analyzed by MRI, and circulating blood cells were counted by Hemavet™.

CC1(C)CCC(c2ccc(Cl)cc2)=C(CN2CCN(c3ccc(C(=O)NS(=O)(=O)c4ccc(N[C@H](CCN5CCOCC5)CSc5ccccc5)c(S(=O)(=O)C(F)(F)F)c4)cc3)CC2)C1 [ABT-263, Navitoclax]
SpO2 levels (peripheral capillary oxygen saturation) [1]: statistically significant increases

CC[C@H](C(=O)N1CCCC[C@H]1C(=O)O[C@H](CCc1ccc(OC)c(OC)c1)c1cccc(OCC(=O)NCC(CNC(=O)COc2cccc([C@@H](CCc3ccc(OC)c(OC)c3)OC(=O)[C@@H]3CCCCN3C(=O)[C@@H](CC)c3cc(OC)c(OC)c(OC)c3)c2)CN(C)C)c1)c1cc(OC)c(OC)c(OC)c1 [AP2018]
SpO2 levels (peripheral capillary oxygen saturation) [1]: statistically significant increases

COc1ccc(C2=N[C@@H](c3ccc(Cl)cc3)[C@@H](c3ccc(Cl)cc3)N2C(=O)N2CCNC(=O)C2)c(OC(C)C)c1 [Nutlin-3A]
expression of p16 in the joint tissue (qRT-PCR) ([2]; 5.8 μg per operated knee intra-articular q.o.d. for 2 weeks, 4 weeks post-surgery, FIG. 3A): reduced the expression back to below the level of the controls
expression of IL-6 in the joint tissue (qRT-PCR) ([2]; 5.8 μg per operated knee intra-articular q.o.d. for 2 weeks, 4 weeks post-surgery, FIG. 3B): reduced the expression back to below the level of the controls
expression of MMP13 in the joint tissue (qRT-PCR) ([2]; 5.8 μg per operated knee intra-articular q.o.d. for 2 weeks, 4 weeks post-surgery, FIG. 3C): reduced the expression back to below the level of the controls
weight bearing test: favoring of the unoperated hind limb over the operated hind limb ([2]; 4 weeks post-surgery, FIG. 4A): abrogated this effect
histopathology: destruction of the proteoglycan layer of the joint ([2]; FIGS. 4B-4D): completely abrogated this effect
expression of SASP factors and senescent cell markers in aortic arch (RT-PCR): MMP3, MMP13, PAI1, p21, IGFBP2, IL-1A, IL-1B ([3]; 25 mg/kg intraperitoneally, timepoint 1 (week 4), after one treatment cycle): reduced expression of several SASP factors and senescent cell markers
expression of SASP factors and senescent cell markers in aortic arch (RT-PCR) ([3]; 25 mg/kg intraperitoneally, timepoint 2 (week 8), multiple treatment cycles): reduced expression of most markers
reduction of surface area covered by plaques in the descending aorta ([3]; 25 mg/kg intraperitoneally, timepoint 3 (week 12), Sudan IV staining, FIG. 7): about 45%
platelet and lymphocyte counts versus vehicle treated mice ([3]; timepoint 3 (week 12), Hemavet): equivalent
mass and body fat composition ([3]; timepoint 3 (week 12), MRI, mice fed the high fat diet): decreased mass and body fat composition
SpO2 levels (peripheral capillary oxygen saturation) [1]: statistically significant increases

Nc1nc(O)c2ncn(COC(CO)CO)c2n1 [ganciclovir]
SpO2 levels (peripheral capillary oxygen saturation) [1]: statistically significant increases
